Values quoted from earlier work as cited in patent publication US20060172006A1, “Sustained-release tramadol formulations with 24-hour clinical efficacy” (priority 2003, published 2006).
Where a name gives a salt, the structure may show the parent alone.

Conditions: human, in vivo

COc1cccc(C2(O)CCCCC2CN(C)C)c1 (stereo not shown) [tramadol HCl, Tramadol hydrochloride]
Estimated incidence of seizures in patients: less than 1%
